Assay results from US7531555B2, “Compositions and methods for selective inhibition of nicotine acetylcholine receptors” (University of Florida Research Foundation, Inc., priority 2003, dated 2009).
Where “and” joins values, the source holds several entries; their conditions need not be identical. Equal entries are not always repeated. Where two headings read alike, the source gives them in different places.

Legend:
Type in all cases: cell-based
[1] = molecular target: T1, Rat α6β4β3 (Rattus norvegicus, UniProt P12391+P12392+P43143); assay: Voltage clamp of Xenopus oocytes expressing α6β4β3 nAChR
T1 construct: oocytes expressing the complete wild-type α6 subunits were tested; expressed in transfected cells; host or cells: Xenopus laevis oocytes injected with subunit cRNAs; clones from Dr. Jim Boulter (UCLA)
Method: (§1) Mature (>9 cm) female Xenopus laevis African frogs (NASCO, Ft. Atkinson, Wis.) were used as a source of oocytes. Prior to surgery, frogs were anesthetized by placing the animal in a 1.5 g/l solution of MS222 (3-aminobenzoic acid ethyl ester) for 30 minutes. Oocytes were removed from an incision made in the abdomen.
(§2) In order to remove the follicular cell layer, harvested oocytes were treated with 1.25 mg/ml collagenase from Worthington Biochemical Corporation (Freehold, N.J.) for 2 hours at room temperature in calcium-free Barth's solution (88 mM NaCl, 10 mM HEPES pH 7.6, 0.33 mM MgSO4, 0.1 mg/ml gentamicin sulfate). Subsequently, stage 5 oocytes were isolated and injected with 50 nl (5-20 ng) each of the appropriate subunit cRNAs. Recordings were made 2 to 15 days after injection.
(§3) Rat neuronal nAChR clones and mouse muscle nAChR cDNA clones were used. The wild-type clones were obtained from Dr. Jim Boulter (UCLA). The rat α6/3 (Dowell et al. J Neurosci, 2003, 23:8445-8452) clone was obtained from Michael McIntosh (University of Utah) and expressed in Xenopus oocytes in combinations with rat β2 and β3. […] The TM2 domain is understood to line the pore of the channel, with alpha helix structure. The 7′ position may actually be directed away from the actual pore lining, but this residue is highly conserved in all of the nAChR. It is valine in all of them except α9 (isoleucine) and β1, where it is alanine. The TM2 mutation in the α6/3 chimera was corrected by using QuickChange (Stratagene) according to their protocols. The corrected α6/3 chimera sequence was confirmed by restriction diagnostics and by automated fluorescent sequencing (University of Florida core facility). The corrected clone was expressed as above in Xenopus oocytes with β2 and β3 and compared to the wild-type α3 co-expressed with β2 and β3.
(§4) After linearization and purification of cloned cDNAs, RNA transcripts were prepared in vitro using the appropriate mMessage mMachine kit from Ambion Inc. (Austin, Tex.).
(§5) Electrophysiology. The majority of experiments were conducted using OpusXpress 6000A (Axon Instruments, Union City Calif.). OpusXpress is an integrated system that provides automated impalement and voltage clamp of up to eight oocytes in parallel. Cells were automatically perfused with bath solution, and agonist solutions were delivered from a 96-well plate. Both the voltage and current electrodes were filled with 3 M KCl. The agonist solutions were applied via disposable tips, which eliminated any possibility of cross-contamination. Drug applications alternated between ACh controls and experimental applications. Flow rates were set at 2 ml/min for experiments with α7 receptors and 4 ml/min for other subtypes. Cells were voltage-clamped at a holding potential of −60 mV. Data were collected at 50 Hz and filtered at 20 Hz. Agonist applications were 12 seconds in duration followed by 181-second washout periods for α7 receptors and 8 seconds with 241-second wash periods for other subtypes. For some experiments, particularly under conditions where residual inhibition precluded making repeated measurements from single cells (see below), manual oocyte recordings were made as previously described (Papke and Papke Br J of Pharmacol, 2002, 137:49-61). In brief, Warner Instruments (Hamden, Conn.) OC-725C oocyte amplifiers were used, and data were acquired with a minidigi or digidata 1200A with pClamp9 software (Axon Instruments). Sampling rates were between 10 and 20 Hz and the data were filtered at 6 Hz. […]

[2] = molecular target: T2, Rat α4β2 (Rattus norvegicus, UniProt P09483+P12390); assay: Voltage clamp of Xenopus oocytes expressing α4β2 nAChR
T2 construct: expressed in transfected cells; host or cells: Xenopus laevis oocytes injected with subunit cRNAs; clones from Dr. Jim Boulter (UCLA)
Method: as §1, §2, §3, §4
(§6) Electrophysiology. The majority of experiments were conducted using OpusXpress 6000A (Axon Instruments, Union City Calif.). OpusXpress is an integrated system that provides automated impalement and voltage clamp of up to eight oocytes in parallel. Cells were automatically perfused with bath solution, and agonist solutions were delivered from a 96-well plate. Both the voltage and current electrodes were filled with 3 M KCl. The agonist solutions were applied via disposable tips, which eliminated any possibility of cross-contamination. Drug applications alternated between ACh controls and experimental applications. Flow rates were set at 2 ml/min for experiments with α7 receptors and 4 ml/min for other subtypes. Cells were voltage-clamped at a holding potential of −60 mV. Data were collected at 50 Hz and filtered at 20 Hz. Agonist applications were 12 seconds in duration followed by 181-second washout periods for α7 receptors and 8 seconds with 241-second wash periods for other subtypes. For some experiments, particularly under conditions where residual inhibition precluded making repeated measurements from single cells (see below), manual oocyte recordings were made as previously described (Papke and Papke Br J of Pharmacol, 2002, 137:49-61). In brief, Warner Instruments (Hamden, Conn.) OC-725C oocyte amplifiers were used, and data were acquired with a minidigi or digidata 1200A with pClamp9 software (Axon Instruments). Sampling rates were between 10 and 20 Hz and the data were filtered at 6 Hz. Cells were voltage clamped at a holding potential of −50 mV.
(§7) Experimental protocols and data analysis. Each oocyte received two initial control applications of ACh, an experimental drug application (or co-application of ACh and TMPH), and then follow-up control application(s) of ACh. The control ACh concentrations for α1β1γδ, α3β4, α4β2, α3β2, α3β2α5, α3β2β3, α6/3β2β3 α6β4β3 and α7, receptors were 30 μM, 100 μM, 10 μM, 30 μM, 1 μM 100 μM 100 μM 100 μM and 300 μM, respectively. […]

[3] = molecular target: T3, Rat α3β4β3 (Rattus norvegicus, UniProt P04757+P12391+P12392); assay: Voltage clamp of Xenopus oocytes expressing α3β4β3 nAChR; set-up: Rat neuronal nAChR clones and mouse muscle nAChR cDNA clones were used; The wild-type clones were obtained from Dr. Jim Boulter (UCLA)
Method: as §1, §2
Rat neuronal nAChR clones and mouse muscle nAChR cDNA clones were used. The wild-type clones were obtained from Dr. Jim Boulter (UCLA). The rat α6/3 (Dowell et al. J Neurosci, 2003, 23:8445-8452) clone was obtained from Michael McIntosh (University of Utah) and expressed in Xenopus oocytes in combinations with rat β2 and β3. […] The TM2 domain is understood to line the pore of the channel, with alpha helix structure. […] The corrected clone was expressed as above in Xenopus oocytes with β2 and β3 and compared to the wild-type α3 co-expressed with β2 and β3. […]

[4] = molecular target: T4, α7 homomeric neuronal nAChR (Rattus norvegicus, UniProt Q05941); assay: Voltage clamp of Xenopus oocytes expressing α7 nAChR
T4 construct: expressed in transfected cells; host or cells: Xenopus laevis oocytes injected with cRNA; clone from Dr. Jim Boulter (UCLA)
Method: as §1, §2, §3, §4, §6, §7

[5] = molecular target: T3, Rat α3β4β3; assay: Voltage clamp of Xenopus oocytes expressing α3β4β3 nAChR; set-up: expressed in transfected cells; host or cells: Xenopus laevis oocytes injected with subunit cRNAs; clones from Dr. Jim Boulter (UCLA)
Method: as §1, §2, §3, §4, §5

[6] = decrease in net charge, 100 μM ACh co-applied with TMPH, read-out: IC50 (area)
[7] = decrease in peak current amplitude, 100 μM ACh co-applied with TMPH, read-out: IC50 (peak)
[8] = inhibition still present after 5-minute wash, read-out: IC50 (recovery)

T4 sequence (Q05941 23-502): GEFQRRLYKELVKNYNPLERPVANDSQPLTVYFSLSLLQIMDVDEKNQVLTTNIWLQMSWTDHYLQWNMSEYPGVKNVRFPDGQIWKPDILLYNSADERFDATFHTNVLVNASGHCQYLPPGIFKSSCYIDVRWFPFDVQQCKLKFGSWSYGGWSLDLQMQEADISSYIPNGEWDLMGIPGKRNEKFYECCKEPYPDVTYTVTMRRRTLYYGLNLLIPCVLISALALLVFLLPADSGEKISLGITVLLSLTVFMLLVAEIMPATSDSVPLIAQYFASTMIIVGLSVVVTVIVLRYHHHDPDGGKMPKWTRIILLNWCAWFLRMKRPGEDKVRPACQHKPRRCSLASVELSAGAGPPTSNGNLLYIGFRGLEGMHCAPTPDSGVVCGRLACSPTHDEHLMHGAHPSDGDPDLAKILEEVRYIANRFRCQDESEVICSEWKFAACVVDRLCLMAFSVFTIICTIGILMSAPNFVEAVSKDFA
T3 sequence (P04757 26-499): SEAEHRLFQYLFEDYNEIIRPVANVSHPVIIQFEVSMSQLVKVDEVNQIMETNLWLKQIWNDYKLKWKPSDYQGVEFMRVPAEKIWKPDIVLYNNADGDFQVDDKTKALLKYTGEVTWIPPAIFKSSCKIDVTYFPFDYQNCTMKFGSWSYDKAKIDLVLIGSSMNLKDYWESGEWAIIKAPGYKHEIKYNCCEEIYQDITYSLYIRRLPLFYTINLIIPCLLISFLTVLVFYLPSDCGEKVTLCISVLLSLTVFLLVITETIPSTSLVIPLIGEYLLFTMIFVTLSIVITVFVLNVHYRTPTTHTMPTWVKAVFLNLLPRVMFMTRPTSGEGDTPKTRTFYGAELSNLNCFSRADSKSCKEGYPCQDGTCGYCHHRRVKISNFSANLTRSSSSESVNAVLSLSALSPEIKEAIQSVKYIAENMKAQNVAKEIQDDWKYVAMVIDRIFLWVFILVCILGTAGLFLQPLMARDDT
T3 sequence (P12392 21-495): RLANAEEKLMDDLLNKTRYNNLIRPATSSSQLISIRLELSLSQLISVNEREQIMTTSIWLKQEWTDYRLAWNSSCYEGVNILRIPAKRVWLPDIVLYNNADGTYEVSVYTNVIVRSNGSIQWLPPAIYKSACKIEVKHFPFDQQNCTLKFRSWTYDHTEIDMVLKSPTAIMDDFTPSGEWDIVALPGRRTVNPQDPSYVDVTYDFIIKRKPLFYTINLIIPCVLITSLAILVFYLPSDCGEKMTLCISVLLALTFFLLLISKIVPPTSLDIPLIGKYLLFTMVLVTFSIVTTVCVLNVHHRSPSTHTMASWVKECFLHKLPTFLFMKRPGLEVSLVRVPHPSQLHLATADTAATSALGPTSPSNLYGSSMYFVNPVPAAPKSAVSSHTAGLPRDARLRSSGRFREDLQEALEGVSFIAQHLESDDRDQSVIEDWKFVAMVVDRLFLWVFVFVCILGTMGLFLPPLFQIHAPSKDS
T3 sequence (P12391 31-464): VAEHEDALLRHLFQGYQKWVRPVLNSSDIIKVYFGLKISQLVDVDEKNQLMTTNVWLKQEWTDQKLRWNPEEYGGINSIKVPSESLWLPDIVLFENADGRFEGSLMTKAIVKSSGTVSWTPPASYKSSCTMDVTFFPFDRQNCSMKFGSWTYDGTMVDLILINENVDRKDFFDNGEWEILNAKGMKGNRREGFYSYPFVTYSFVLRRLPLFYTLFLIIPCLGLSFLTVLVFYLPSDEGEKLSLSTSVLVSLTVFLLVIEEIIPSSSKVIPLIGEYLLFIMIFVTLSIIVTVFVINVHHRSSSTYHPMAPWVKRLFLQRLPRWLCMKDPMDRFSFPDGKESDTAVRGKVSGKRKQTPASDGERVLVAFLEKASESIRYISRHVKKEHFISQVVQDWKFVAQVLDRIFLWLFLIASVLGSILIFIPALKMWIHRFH
T1 sequence (P43143 31-493): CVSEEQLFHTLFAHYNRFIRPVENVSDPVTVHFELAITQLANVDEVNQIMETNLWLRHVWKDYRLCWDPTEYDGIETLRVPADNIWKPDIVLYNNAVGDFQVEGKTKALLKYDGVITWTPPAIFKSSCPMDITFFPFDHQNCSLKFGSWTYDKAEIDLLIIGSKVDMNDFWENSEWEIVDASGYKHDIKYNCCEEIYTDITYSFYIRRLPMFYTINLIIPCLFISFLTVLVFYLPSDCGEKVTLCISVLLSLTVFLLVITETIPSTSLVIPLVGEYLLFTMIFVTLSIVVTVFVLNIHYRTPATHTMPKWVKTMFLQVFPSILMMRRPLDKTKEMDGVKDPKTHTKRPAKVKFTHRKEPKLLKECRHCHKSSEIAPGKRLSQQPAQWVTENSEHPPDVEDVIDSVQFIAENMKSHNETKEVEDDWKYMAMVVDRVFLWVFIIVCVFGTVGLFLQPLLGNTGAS
T1 sequence (P12392 21-495): as the sequence (P12392 21-495) above
T1 sequence (P12391 31-464): as the sequence (P12391 31-464) above
T2 sequence (P09483 31-630): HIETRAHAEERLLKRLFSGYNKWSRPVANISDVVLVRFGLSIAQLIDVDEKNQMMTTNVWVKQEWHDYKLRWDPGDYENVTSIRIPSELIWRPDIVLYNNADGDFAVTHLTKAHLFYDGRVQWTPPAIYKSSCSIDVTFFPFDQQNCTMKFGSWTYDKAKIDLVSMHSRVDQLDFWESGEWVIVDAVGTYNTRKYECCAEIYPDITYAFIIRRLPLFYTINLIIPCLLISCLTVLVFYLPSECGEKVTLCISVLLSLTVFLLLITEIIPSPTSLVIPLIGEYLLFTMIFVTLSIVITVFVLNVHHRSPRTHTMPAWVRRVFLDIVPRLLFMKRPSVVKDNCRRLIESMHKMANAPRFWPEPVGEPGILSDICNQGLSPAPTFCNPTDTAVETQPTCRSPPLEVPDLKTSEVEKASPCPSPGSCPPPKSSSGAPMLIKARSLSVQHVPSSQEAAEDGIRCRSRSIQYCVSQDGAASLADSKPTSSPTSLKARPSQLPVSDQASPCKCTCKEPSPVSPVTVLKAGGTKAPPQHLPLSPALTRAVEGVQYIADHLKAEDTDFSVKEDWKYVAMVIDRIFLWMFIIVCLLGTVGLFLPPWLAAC
T2 sequence (P12390 25-500): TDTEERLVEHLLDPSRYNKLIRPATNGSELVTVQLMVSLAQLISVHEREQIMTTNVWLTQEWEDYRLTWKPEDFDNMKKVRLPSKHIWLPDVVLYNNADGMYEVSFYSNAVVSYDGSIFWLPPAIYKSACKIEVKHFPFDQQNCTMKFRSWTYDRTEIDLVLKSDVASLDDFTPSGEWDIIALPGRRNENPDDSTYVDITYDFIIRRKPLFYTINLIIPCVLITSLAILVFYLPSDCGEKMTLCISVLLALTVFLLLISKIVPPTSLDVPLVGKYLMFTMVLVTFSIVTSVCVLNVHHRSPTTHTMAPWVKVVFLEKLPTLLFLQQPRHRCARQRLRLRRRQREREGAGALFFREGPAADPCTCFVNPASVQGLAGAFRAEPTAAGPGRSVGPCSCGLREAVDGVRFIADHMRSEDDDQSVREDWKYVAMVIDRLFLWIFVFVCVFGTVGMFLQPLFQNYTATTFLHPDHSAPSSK

CCCCCCC(=O)OC1CC(C)(C)NC(C)(C)C1 [TMPH, 2,2,6,6-tetramethylpiperidin-4-yl heptanoate]
IC50 [1, 6]: 18.3 ± 4.9 µM
IC50 [1, 7]: 11 ± 4.4 µM
IC50 [1, 8]: 1700 ± 420 µM
IC50 net charge/IC50 peak ([1]; ratio): 1.7
IC50 recovery/IC50 net charge ([1]; ratio): 93
inhibition at 0.1 µM ([2]; 100 nM TMPH, after 3 applications at 10-minute intervals, read-out: inhibition after repeated co-applications of ACh with TMPH): 90%
use-independent inhibition, TMPH applied alone ([2]; 1 μM TMPH alone versus co-applied with ACh): almost as effective as when co-applied with ACh
IC50 ([2]; decrease in net charge, 10 μM ACh co-applied with TMPH, single co-application, read-out: IC50 (area)): 0.1 µM and 0.11 µM
IC50 ([2]; decrease in peak current amplitude, 10 μM ACh co-applied with TMPH, read-out: IC50 (peak)): 1.4 µM
reversibility of inhibition ([2]; following a 5-minute wash): virtually no recovery
IC50 ([2]; from shift of the net charge inhibition curve so that 100 nM is the IC90, read-out: equilibrium IC50): ~0.01 µM
IC50 [2, 8]: 0.25 ± 0.08 µM
IC50 net charge/IC50 peak ([2]; ratio): 0.08
IC50 recovery/IC50 net charge ([2]; ratio): 2.3
IC50 ([3]; inhibition still present after 5-minute wash, read-out: IC50 (recovery), 2 site model, site with approximately 15% of the fit): 1 µM
IC50 recovery/IC50 net charge, 2-site model, first value ([3]; ratio, recovery site of IC50 1.0 μM): 0.7
reversibility of inhibition ([4]; after a 5-minute wash): significant recovery
IC50 ([4]; decrease in net charge, 300 μM ACh co-applied with TMPH, read-out: IC50 (area)): 1.2 ± 0.2 µM
IC50 ([4]; decrease in peak current amplitude, 300 μM ACh co-applied with TMPH, read-out: IC50 (peak)): 1 ± 0.1 µM
IC50 [4, 8]: 16 ± 4 µM
IC50 net charge/IC50 peak ([4]; ratio): 1.2
IC50 recovery/IC50 net charge ([4]; ratio): 13.3
IC50 [5, 6]: 1.4 ± 0.2 µM
IC50 [5, 7]: 1.9 ± 0.2 µM
IC50 ([5]; inhibition still present after 5-minute wash, read-out: IC50 (recovery), 2 site model, site with 85% of the fit): 30 µM
IC50 net charge/IC50 peak ([5]; ratio): 0.74
IC50 recovery/IC50 net charge, 2-site model, second value ([5]; ratio, recovery site of IC50 30 μM): 21
